Results published in US20170280720A1, “ARGININE […] INHIBITORS AND USES THEREOF” (EPIZYME, INC., priority 2014, published 2017).

Experiments:
[1] = test system: asymmetric di-methyl PABP1 in RKO cells; assay: In Cell Western (ICW) for asymmetric di-methyl PABP1 and DNA content in RKO cells; format: cell-based; conditions: Homo sapiens, RKO, In Cell Western
Excerpt: RKO adherent cells were purchased from ATCC (American Type Culture Collection), Manassas, Va., USA. DMEM/Glutamax medium, penicillin-streptomycin, heat inactivated fetal bovine serum, 0.05% trypsin and D-PBS were purchased from Life Technologies, Grand Island, N.Y., USA. Odyssey blocking buffer, 800CW goat anti-rabbit IgG (H+L) antibody, and Licor Odyssey infrared scanner were purchased from Licor Biosciences, Lincoln, Nebr., USA. Mono-methyl arginine antibody was purchased from Cell Signaling Technology, Danvers, Mass., USA. Methanol was purchased from VWR, Franklin, Mass., USA. 10% Tween 20 was purchased from KPL, Inc., Gaithersburg, Md., USA. […] was purchased from Biostatus Limited, Leicestershire, UK. RKO adherent cells were maintained in growth medium (DMEM/Glutamax medium supplemented with 10% v/v heat inactivated fetal bovine serum and 100 units/mL penicillin-streptomycin) and cultured at 37° C. under 5% CO2. Cell Treatment, in Cell Western (ICW) for Detection of Asymmetric Di-Methyl PABP1 and DNA Content. RKO cells were seeded in assay medium at a concentration of 30,000 cells per mL to a poly-D-lysine coated 384 well culture plate (BD Biosciences 356697) with 50 μL per well. Compound (100 nL) from a 96-well source plate was added directly to 384 well cell plate. Plates were incubated at 37° C., 5% CO2 for 48 hours. After two days of incubation, plates were brought to room temperature outside of the incubator for ten minutes and blotted on paper towels to remove cell media. Cells were fixed for 20 minutes at room temperature by adding 50 μl of 8% PFA followed by aspiration of supernatant with the Biotek EL406 plate washer. Cells were then permeabilized by addition of 50 μL of ice cold 100% methanol directly to each well and incubated for 30 min at room temperature. After 30 min, plates were transferred to a Biotek EL406 plate washer and washed 2 times with 100 μL per well of wash buffer (1×PBS). Next 60 μL per well of Odyssey blocking buffer (Odyssey Buffer with 0.1% Tween 20 (v/v)) were added to each plate and incubated 1 hour at room temperature. Blocking buffer was removed and 20 μL per well of primary antibody was added (asymmetric-methyl PABP1) diluted 1:400 in Odyssey buffer with 0.1% Tween 20 (v/v)) and plates were incubated overnight (16 hours) at 4° C. Plates were washed 5 times with 100 μL per well of wash buffer. Next 20 μL per well of secondary antibody was added (1:800 800CW goat anti-rabbit IgG (H+L) antibody, 1:2000 DRAQS in Odyssey buffer with 0.1% Tween 20 (v/v)) and incubated for 1 hour at room temperature. The plates were washed 5 times with 100 μL per well wash buffer then 2 times with 100 μL per well of water. Plates were allowed to dry at room temperature then imaged on the Licor Odyssey machine which measures integrated intensity at 700 nm and 800 nm wavelengths. Both 700 and 800 channels were scanned. Calculations: First, the ratio for each well was determined by: Each plate included fourteen control wells of DMSO only treatment (minimum inhibition) as well as fourteen control wells for maximum inhibition treated with 20 μM of a reference compound. The average of the ratio values for each control type was calculated and used to determine the percent activation for each test well in the plate. Reference compound was serially diluted three-fold in DMSO for a total of nine test concentrations, beginning at 20 μM. Percent inhibition was determined and IC50 curves were generated using triplicate wells per concentration of compound.

Human CARM1 (PRMT4) = target: T1, Human CARM1 (PRMT4) (Homo sapiens, UniProt Q86X55); assay: CARM1 biochemical assay (3H-SAM Flashplate, peptide substrate); conditions: read-out: CARM1_ IC50
T1 construct: Flag-CARM1-His; made in house; host or cells: HEK 293F cells (BacMam baculovirus, pFastBacMam)
T1 sequence (Q86X55 2-585 isoform Q86X55-1): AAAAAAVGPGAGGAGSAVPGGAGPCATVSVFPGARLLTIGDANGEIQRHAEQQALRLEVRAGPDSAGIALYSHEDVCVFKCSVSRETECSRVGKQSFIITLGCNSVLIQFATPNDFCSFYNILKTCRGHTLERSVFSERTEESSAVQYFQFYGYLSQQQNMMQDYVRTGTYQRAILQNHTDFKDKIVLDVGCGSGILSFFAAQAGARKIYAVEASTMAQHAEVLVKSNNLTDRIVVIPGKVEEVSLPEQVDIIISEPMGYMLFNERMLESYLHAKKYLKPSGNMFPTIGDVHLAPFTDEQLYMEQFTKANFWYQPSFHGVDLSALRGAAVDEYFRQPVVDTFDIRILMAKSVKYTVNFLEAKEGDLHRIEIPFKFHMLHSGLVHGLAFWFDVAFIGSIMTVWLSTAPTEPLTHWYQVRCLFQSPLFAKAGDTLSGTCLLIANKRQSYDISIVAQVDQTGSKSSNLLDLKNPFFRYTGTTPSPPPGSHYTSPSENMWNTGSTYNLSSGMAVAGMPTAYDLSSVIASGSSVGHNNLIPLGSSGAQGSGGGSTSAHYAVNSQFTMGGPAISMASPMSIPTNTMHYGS
In short: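 FLAG/His-tagged human CARM1 (isoform 1, Δ539-561, baculovirus-expressed), 0.25 nM, preincubated 30 min at room temperature with compound (2% DMSO) in 20 mM Bicine pH 7.6, then reacted with 30 nM 3H-SAM and 250 nM biotinylated H3 16-30 peptide (R26 monomethyl). Stopped with 300 uM cold SAM; labelled peptide captured on streptavidin Flashplate; % inhibition versus DMSO and 1 mM SAH controls fitted to a 4- or 3-parameter curve.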

| Structure (SMILES) | IC50 [1] [nM] | IC50 (Human CARM1 (PRMT4)) [nM] |
| --- | --- | --- |
| CNCCN(C)Cc1cccc(-c2cc(-c3ccc(O)cc3)c3cnn(C(C)C)c3n2)c1 [Compound 247] | 20000 | 54.7 |
| CC(C)n1ncc2c(C(=O)N(C)C3CCOCC3)cc(-c3cccc(CN(C)CCN)c3)nc21 [Compound 265] | 10300 | 74.4 |
| Cc1c(C(=O)NC2CCOCC2)cc(-c2cccc(CN(C)CCN)c2)cc1N(C)CC1CC1 [Compound 243] | 20000 | 52 |
| CC(C)n1cc2c(C(=O)NCC3CCOCC3)cc(-c3cccc(CN(C)CCN)c3)nc2n1 [Compound 297] | 20000 | 189 |
| CC(C)n1ncc2c(C(=O)N3CCN(C)C(=O)C3)cc(-c3cccc(CN(C)CCN)c3)nc21 [Compound 272] | 20000 | 84.8 |
| CCNCCN(C)Cc1cccc(-c2cc(C(=O)NCC3CCOCC3)c3cnn(C(C)C)c3n2)c1 [Compound 271] | 20000 | 81.4 |
| CNCCN(C)Cc1cccc(-c2nc(NC3CCOCC3)c3cnn(C4CC4)c3n2)c1 [Compound 179] | 4870 | 8.88 |
| CNC(=O)c1cc(-c2cccc(CNCCN)c2)nc2c1cnn2C(C)C [Compound 311] | 14200 | 293 |
| CNCCN(C)Cc1cccc(-c2cc(C(=O)N(C)CC3CCOCC3)c3cnn(C(C)C)c3n2)c1 [Compound 298] | 9620 | 200 |
| CC(C)n1ncc2c(C(=O)NCc3cnc[nH]3)cc(-c3cccc(CN(C)CCN)c3)nc21 [Compound 206] | 20000 | 19.7 |
| CNCCN(C)Cc1cccc(-c2cc(C(=O)NCc3cncn3C)c3cnn(C(C)C)c3n2)c1 [Compound 280] | 9490 | 113 |
| CC(C)n1ncc2c(-c3ccco3)cc(-c3cccc(CN(C)CCN)c3)nc21 [Compound 198] | 20000 | 15.1 |
| CCCc1cc(-c2cccc(CN(C)CCNC)c2)nc2c1cnn2C(C)C [Compound 239] | 20000 | 49 |
| CCN(Cc1cccnc1)C(=O)c1cc(-c2cccc(CN(C)CCNC)c2)nc2c1cnn2C(C)C [Compound 254] | 5520 | 61.8 |
| CNCCN(C)Cc1cccc(-c2cc(C(F)(F)F)c3cnn(C(C)C)c3n2)c1 [Compound 293] | 17600 | 173 |
| CNCCN(C)Cc1cccc(-c2cc(C(=O)NCC3CCOCC3)c3cnn(C)c3n2)c1 [Compound 289] | 16900 | 163 |
| CNCCN(C)Cc1cccc(-c2cc(C(=O)N3CCC3)c3cnn(C(C)C)c3n2)c1 [Compound 252] | 20000 | 59.3 |
| CCn1ncc2c(C(=O)NCC3CCOCC3)cc(-c3cccc(CN(C)CCNC)c3)nc21 [Compound 227] | 4740 | 39.9 |
| CCn1ncc2c(C(=O)NC3CCOCC3)cc(-c3cccc(CN(C)CCNC)c3)nc21 [Compound 253] | 6090 | 61.3 |
| CNCCN(C)Cc1cccc(-c2cc(C(=O)NCc3cnc[nH]3)c3cnn(C(C)C)c3n2)c1 [Compound 231] | 20000 | 42.2 |
| CNCCN(C)Cc1cccc(-c2cc(-c3ccsc3)c3cnn(C(C)C)c3n2)c1 [Compound 235] | 20000 | 45.8 |
| CC(C)n1ncc2c(C(=O)NCc3cncn3C)cc(-c3cccc(CN(C)CCN)c3)nc21 [Compound 185] | 10800 | 11.7 |
| C=CCn1ncc2c(C(=O)NCC3CCOCC3)cc(-c3cccc(CN(C)CCNC)c3)nc21 [Compound 286] | 7150 | 148 |
| CC(C)n1ncc2c(NCC(=O)O)cc(-c3cccc(CN(C)CCN)c3)nc21 [Compound 319] | 20000 | 401 |
| CNCCN(C)Cc1cccc(-c2cc(C(=O)NCc3cccc(F)c3)c3cnn(C(C)C)c3n2)c1 [Compound 259] | 20000 | 67 |
| CC(C)n1ncc2c(C(=O)N3CCOCC3)cc(-c3cccc(CN(C)CCN)c3)nc21 [Compound 279] | 18700 | 113 |
| CNCCN(C)Cc1cccc(-c2cc(C(=O)N3Cc4cccnc4C3)c3cnn(C(C)C)c3n2)c1 [Compound 301] | 15500 | 209 |

Stronger by IC50 [1], values ahead:

| IC50 [1] [nM] | IC50 (Human CARM1 (PRMT4)) [nM] | Structure (SMILES) |
| --- | --- | --- |
| 3250 | 23.9 | CCN(Cc1cccnc1)C(=O)c1cc(-c2cccc(CN(C)CCN)c2)nc2c1cnn2C(C)C [Compound 211] |
| 3470 | 35.3 | CNCCN(C)Cc1cccc(-c2cc(C(=O)NCc3cn(C)cn3)c3cnn(C(C)C)c3n2)c1 [Compound 223] |
| 3140 | 5.67 | CC(C)n1ncc2c(C(=O)NCc3ccncc3)cc(-c3cccc(CN(C)CCN)c3)nc21 [Compound 172] |
| 2240 | 29.1 | CC(C)n1ncc2c(C(=O)NCc3nccn3C)cc(-c3cccc(CN(C)CCN)c3)nc21 [Compound 215] |
| 3310 | 5.93 | CCOC(=O)Nc1cc(-c2cccc(CN(C)CCN)c2)nc2c1cnn2C(C)C [Compound 173] |
| 1240 | 32.5 | CC(C)n1ncc2c(C(=O)NCc3ccn(C)n3)cc(-c3cccc(CN(C)CCN)c3)nc21 [Compound 220] |
| 1890 | 12.4 | CC(C)n1ncc2c(C(=O)NCc3nccs3)cc(-c3cccc(CN(C)CCN)c3)nc21 [Compound 189] |
| 1970 | 11.6 | Cc1c(CNC(=O)c2cc(-c3cccc(CN(C)CCN)c3)nc3c2cnn3C(C)C)cnn1C [Compound 183] |
| 1660 | 15 | CC(C)n1ncc2c(C(=O)NCc3cccc4ccnn34)cc(-c3cccc(CN(C)CCN)c3)nc21 [Compound 197] |
| 2000 | 22.4 | CC(C)n1ncc2c(C(=O)NC3CC3)cc(-c3cccc(CN(C)CCN)c3)nc21 [Compound 210] |
| 2760 | 43.3 | CNCCN(C)Cc1cccc(-c2cc(C(=O)NC3CCOC3)c3cnn(C(C)C)c3n2)c1 (stereo not drawn) [Compound 234] |
| 1660 | 13.9 | CC(C)n1ncc2c(C(=O)NCc3cccnc3)cc(-c3cccc(CN(C)CCN)c3)nc21 [Compound 195] |
| 1800 | 24.9 | CNCCN(C)Cc1cccc(-c2cc(C(=O)NCc3nccn3C)c3cnn(C(C)C)c3n2)c1 [Compound 212] |
| 3440 | 159 | CNCCN(C)Cc1cccc(-c2cc(C(=O)NCC(F)(F)F)c3cnn(C(C)C)c3n2)c1 [Compound 288] |
| 3820 | 34.4 | CC(C)n1ncc2c(C(=O)NCC(F)(F)F)cc(-c3cccc(CN(C)CCN)c3)nc21 [Compound 222] |
